Test results reported in the supplement of paper PMC10307832.

Columns and labels:
Experiment in all cases: relative viability (nuclei count vs DMSO), 5 days (fraction); higher = more cells survive
Alisertib + Pictilisib = compound: COc1cc(Nc2ncc3c(n2)-c2ccc(Cl)cc2C(c2c(F)cccc2OC)=NC3)ccc1C(=O)O [Alisertib] + CS(=O)(=O)N1CCN(Cc2cc3nc(-c4cccc5[nH]ncc45)nc(N4CCOCC4)c3s2)CC1 [Pictilisib] (partner 1 µM)
Method in brief: (§1)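 Relative viability is defined as nuclei in treated wells over nuclei in vehicle wells. Duplicate plates were run and medians reported. Lung cancer cell lines in 1536-well plates were dosed by pin tool one day after seeding, with one drug or with a fixed anchor-drug dose plus five library-drug doses (not always all listed) in √10 steps, and nuclei were counted after 5 days.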

Alisertib + Alpelisib = compound: COc1cc(Nc2ncc3c(n2)-c2ccc(Cl)cc2C(c2c(F)cccc2OC)=NC3)ccc1C(=O)O [Alisertib] + Cc1nc(NC(=O)N2CCC[C@H]2C(N)=O)sc1-c1ccnc(C(C)(C)C(F)(F)F)c1 [Alpelisib] (partner 2 µM)
Method in brief: as §1

Alisertib + Phenformin = compound: COc1cc(Nc2ncc3c(n2)-c2ccc(Cl)cc2C(c2c(F)cccc2OC)=NC3)ccc1C(=O)O [Alisertib] + N=C(N)NC(=N)NCCc1ccccc1 [Phenformin] (partner 250 µM)
Method in brief: as §1

Alisertib + AZD7762 = compound: COc1cc(Nc2ncc3c(n2)-c2ccc(Cl)cc2C(c2c(F)cccc2OC)=NC3)ccc1C(=O)O [Alisertib] + NC(=O)Nc1cc(-c2cccc(F)c2)sc1C(=O)N[C@H]1CCCNC1 [AZD7762] (partner 0.2 µM)
Method in brief: as §1

Cell Line	relative viability (Alisertib + Pictilisib; first compound 0.005 µM)	relative viability (Alisertib + Pictilisib; first compound 0.01581 µM)	relative viability (Alisertib + Pictilisib; first compound 0.05 µM)	relative viability (Alisertib + Pictilisib; first compound 0.1581 µM)	relative viability (Alisertib + Pictilisib; first compound 0.5 µM)	relative viability (Alisertib + Alpelisib; first compound 0.005 µM)	relative viability (Alisertib + Alpelisib; first compound 0.01581 µM)	relative viability (Alisertib + Alpelisib; first compound 0.05 µM)	relative viability (Alisertib + Alpelisib; first compound 0.1581 µM)	relative viability (Alisertib + Alpelisib; first compound 0.5 µM)	relative viability (Alisertib + Phenformin; first compound 0.005 µM)	relative viability (Alisertib + Phenformin; first compound 0.01581 µM)	relative viability (Alisertib + Phenformin; first compound 0.05 µM)	relative viability (Alisertib + Phenformin; first compound 0.1581 µM)	relative viability (Alisertib + Phenformin; first compound 0.5 µM)	relative viability (Alisertib + AZD7762; first compound 0.005 µM)	relative viability (Alisertib + AZD7762; first compound 0.01581 µM)	relative viability (Alisertib + AZD7762; first compound 0.05 µM)	relative viability (Alisertib + AZD7762; first compound 0.1581 µM)	relative viability (Alisertib + AZD7762; first compound 0.5 µM)
NCI-H2347	0.534	0.431	0.41	0.376	0.429	0.903	0.877	0.857	0.637	0.436	0.346	0.373	0.299	0.411	0.242	0.741	0.671	0.585	0.387	0.37
NCI-H2405	0.433	0.358	0.365	0.274	0.176	0.817	0.707	0.699	0.42	0.248	0.366	0.46	0.371	0.28	0.247	0.589	0.684	0.66	0.24	0.251
NCI-H3122	0.584	0.62	0.586	0.266	0.198	0.741	0.747	0.472	0.295	0.211	0.376	0.371	0.37	0.248	0.142	0.973	0.78	0.776	0.259	0.203
PC-3 [JPC-3]	0.616	0.728	0.667	0.349	0.369	0.952	0.98	0.751	0.598	0.369	0.488	0.456	0.484	0.377	0.293	0.649	0.778	0.705	0.403	0.317
PC-14	0.632	0.672	0.447	0.127	0.0567	0.901	0.84	0.686	0.277	0.106	0.481	0.453	0.363	0.0963	0.0647	0.226	0.38	0.272	0.0966	0.0539
RERF-LC-KJ	0.49	0.517	0.435	0.206	0.159	0.819	0.823	0.622	0.283	0.196	0.382	0.377	0.246	0.219	0.233	0.798	0.799	0.801	0.236	0.214
